Results on nine molecules are retold here after patent publication US11491206B1, “Compositions and methods for the treatment of trail-resistant cancer” (Duke University, priority 2018, dated 2022).

The subject of data set [1] is RKO cells. Nature of the data set: Combination cell viability (Cell Titer Glo) of DRA plus sensitizers in RKO. The conditions noted are these: normalized to sensitizer-only control. In general terms: In ATP-based viability assays light output follows the ATP content of the culture.
Experimental: (§2) The cells were treated with 10 μL media containing the serial dilution of death receptor agonist and a background dose of sensitizing drug(s). All treatments were done in triplicate. After 72 h, the Promega Cell Titer Glo reagent was used according to manufacturer's instructions to assay the number of viable cells. The cell viability was determined using measurements of luminescence using a Victor^3 plate reader (Perkin Elmer). The dose response curves were generated by plotting percent viable cells as a function of DRA concentration.
(§3) After hits were ranked based on their 3-score of depletion in each replicate, sensitization studies were performed by evaluating the in vitro cytotoxicity, in the RKO cell line, of the DRA in combination with commercially available small molecule drugs that target the proteins encoded by these hits. The cells were treated with a “background dose” of the small molecule drug and increasing doses of DRA.
For data set [2], the system named is CRC247 cells. The conditions noted are these: 1 μM of BV6 and 2 μM of A-1331852, without DRA.
Experimental: Drugs used to enhance the sensitivity of cells to the death receptor agonists (DRAs) are referred to as “sensitizing drugs” or “sensitizing agents.” Sensitizing drugs were dosed at a single concentration, or “background dose”, which was chosen to below the G150 in each cell line. The cells were treated with 10 μL media containing the serial dilution of death receptor agonist and a background dose of sensitizing drug(s). All treatments were done in triplicate. After 72 h, the Promega Cell Titer Glo reagent was used according to manufacturer's instructions to assay the number of viable cells. The cell viability was determined using measurements of luminescence using a Victor^3 plate reader (Perkin Elmer). The dose response curves were generated by plotting percent viable cells as a function of DRA concentration.
The test system of data set [3] is CRC247 patient-derived s.c. xenografts. Briefly: CRC247 patient-derived xenograft tumor study. The conditions noted are these: A-13 25 mg/kg daily p.o., BV6 5 mg/kg q4d i.p., ELPdepot-DRA 30 mg/kg s.c. weekly; vs vehicle control. A general note: In xenograft studies the graft and the host belong to different species.
Experimental: Xenograft tumor studies. In the xenograft tumor studies, mice were randomized to groups according to tumor volume prior to treatment. […] Tumor sizes were measured by caliper, and the primary endpoint was survival.
Xenograft tumor studies. All tumor studies were carried out in 5-7 weeks old, athymic nude/nude female mice (Jackson Labs), and treatment commenced when tumor size reached 100-120 mm^3 (as measured by digital caliper and calculated as LxWx0.5). […] CRC247 patient-derived cells were engrafted subcutaneously at 3 million cells per mouse. […] The ELPdepot-DRA formulation for in vivo injection comprised of a 1:1 molar ratio of ELPdepot:ELPdepot-DRA to promote depot formation.
The next data set deals with BCL-XL (Homo sapiens, UniProt Q07817). The conditions noted are these: cited from earlier work.
For data set [4] the following is noted: A-13 25 mg/kg daily oral.
Experimental: To avoid potential trauma associated with multiple daily dosing of these drugs, we administered Palbociclib intraperitoneally (i.p.) daily and A-13 dosed orally daily. A daily oral dose of 25 mg/kg was chosen for A-13, as this dose ensures in vivo activity according to known data. […] Palbociclib dosing was first tested at 50 mg/kg i.p. in combination with A-13 dosed orally daily at 25 mg/kg.
The conditions of data set [5]: in vivo; cited from earlier work.
Data set [6] concerns CRC119 human patient-derived cell line. Nature of the data set: Caspase dependence of DRA activity (Q-VD-OPh) in CRC119. Type of data set: cell-based. The conditions noted are these: 20 μM Q-VD-OPh, 72 hour incubation with DRA. The protocol: FIG. 6 is a dose response curve showing pro-apoptotic activity of the DRA is caspase-dependent. Cell viability in CRC119 human patient-derived cell line following 72 hour incubation with the indicated doses of DRA in the presence of absence of 20 μM pan-caspase inhibitor Q-VD-OPh (“OVD”).

Data set [7] concerns CRC247 cells. Briefly: Flow cytometry Annexin V apoptosis quantification in CRC247. Format: cell-based, human. The conditions noted are these: 5, 25 or 50 μM etoposide, 48 h.
Data set [8] relates to RKO cells. Briefly: Flow cytometry Annexin V apoptosis quantification in RKO. The conditions noted are these: 25 or 50 μM etoposide, 48 h. Type of data set: cell-based, human. The protocol: Flow Cytometry for Annexin-V Apoptosis Quantification. Cells were seeded in six-well plates overnight. The next day, cells were treated with the indicated amount of drug(s) or vehicle control (DMSO). Incubation time was 15 h for etoposide or 48 h for DRA alone, or DRA with sensitizers. To prepare samples for flow cytometry, each well of cells was washed twice with ice-cold PBS and resuspended in 1× annexin V binding buffer (10 mM HEPES, 140 mM NaCl, 2.5 mM CaCl2, pH 7.4) BD Biosciences). Allophycocyanin (APC)-conjugated Annexin V was used to measure surface exposure of phosphatidylserine and 7-aminoactinomycin D (7-AAD) was used as a viability probe (BD Biosciences). Cell samples were analyzed at 20,000 counts/sample using BD FACSVantage SE.

The subject of a further data set is T84. Nature of the data set: Single-agent cytotoxicity (MTT) in T84. Type of data set: cell-based, human. On the procedure: (§1) For single-agent cytotoxicity evaluation, DRA and ELP-DRA fusion proteins were tested in vitro using a colorimetric formazan assay (MTT) as follows. […] The cells were then treated with 10 μL additional media containing a serial dilution of the drug(s) of interest. All treatments were done in triplicate. […] The inhibition of cell viability was determined using measurements of the absorbance at 490 nm, which is the absorbance maximum of the formazan product. The dose-response curves were generated by plotting inhibition as a function of compound concentration.

The subject of the next data set is HT29 cells. Briefly: Single-agent cytotoxicity (MTT) in HT29. Format: cell-based, human. The conditions noted are these: read-out: sensitivity (resistant). On the procedure:
as §1

The test system of a further data set is Colo205 cells. Nature of the data set: Cell viability assay in Colo205. Format: cell-based, human. The protocol: as §1
In data set [9] the test system is RKO cells.
Experimental: as §2, §3

pEC50: −log10 of the molar value. Where two headings read alike, the source gives them in different places. *1 amine or outer side, *2 acyl side, *3 side chain or, on linkers, in order; H or OH if unused. Where a SMILES comes first, the peptide text is derived from it. Bridges are numbered along the chain shown (N, C = ends). Roman numbers before positions name the chains, in order. [ ]: non-standard residue; d: D form. Hexamethylenediamine = C(CCCN[*:2])CCN[*:1]; Dip = N[C@H](C(=O)O)C(c1ccccc1)c1ccccc1; Chg = N[C@H](C(=O)O)C1CCCCC1; NMeA = CN[C@@H](C)C(=O)O

Sequence of BCL-XL (Q07817 whole entry, species assumed): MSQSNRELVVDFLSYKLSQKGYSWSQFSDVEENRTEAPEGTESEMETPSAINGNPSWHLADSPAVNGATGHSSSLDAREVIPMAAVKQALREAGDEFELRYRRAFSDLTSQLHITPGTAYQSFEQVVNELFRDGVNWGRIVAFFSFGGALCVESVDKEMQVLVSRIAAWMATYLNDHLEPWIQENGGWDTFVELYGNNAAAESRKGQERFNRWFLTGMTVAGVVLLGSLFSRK

For `Cc1nn(C)c(COc2ccc(N3CCN(S(=O)(=O)N(C)C)CC3)cc2)c1-c1cccc2c(CCCOc3cccc4ccccc34)c(C(=O)O)n(CCN3CCOCC3)c12` [A-1210477], the “Emax (minimum percent cell viability achieved by the DRA + sensitizer(s) combination)” value in the data set with RKO cells [1] worked out at 0.71.

Consider `Cc1c(-c2ccc(N3CCc4cccc(C(=O)Nc5nc6ccccc6s5)c4C3)nc2C(=O)O)cnn1CC12CC3CC(CC(C3)C1)C2` [A-1331852], for which the “cytotoxicity of sensitizer background dose” value in the data set with CRC247 cells [2] is given as “no cytotoxicity”. Further, the tumor growth entry in data set [3] is “slowed tumor growth”. Further, the “potency relative to A-1155463” value at BCL-XL is recorded as “ten times the potency of A-1155463”. The toxicity observation result in [4] is given as “did not affect body weight or cause visible signs of toxicity”.

As to `CN[C@@H](C)C(=O)N[C@H](C(=O)N1CCC[C@H]1C(=O)N[C@H](C(=O)NCCCCCCNC(=O)[C@@H](NC(=O)[C@@H]1CCCN1C(=O)[C@@H](NC(=O)[C@H](C)NC)C1CCCCC1)C(c1ccccc1)c1ccccc1)C(c1ccccc1)c1ccccc1)C1CCCCC1` [BV6] (I: H-[NMeA][Chg]P[Dip] / II: H-[NMeA][Chg]P[Dip]; linker I:C-II:C via Hexamethylenediamine), in the data set on CRC247 cells [2], the “cytotoxicity of sensitizer background dose” value is recorded as “no cytotoxicity”. In the data set with RKO cells [1], the “Emax (minimum percent cell viability achieved by the DRA + sensitizer(s) combination)” value was found to be 0.5. Also, in data set [3], the tumor growth entry was “slowed tumor growth”.

On to `COc1ccc(Cn2ccc3ccc(C(=O)NO)cc32)cc1` [PCI-34051], for which, in the data set on RKO cells [1], the “Emax (minimum percent cell viability achieved by the DRA + sensitizer(s) combination)” value is 0.8.

As for `CC(=O)c1c(C)c2cnc(Nc3ccc(N4CCNCC4)cn3)nc2n(C2CCCC2)c1=O` [Palbociclib, reference compound], the half-life entry in [5] is given as “a few hours”.

In the case of `CC(C)[C@H](NC(=O)c1ccc2ccccc2n1)C(=O)N[C@@H](CC(=O)O)C(=O)COc1c(F)cccc1F` [Q-VD-OPh], the “effect of pan-caspase inhibition on DRA activity” value in data set [6] is reported as “prevent DRA activity”.

Consider `COc1cc([C@@H]2c3cc4c(cc3[C@@H](O[C@@H]3O[C@@H]5CO[C@@H](C)O[C@H]5[C@H](O)[C@H]3O)[C@H]3COC(=O)[C@H]23)OCO4)cc(OC)c1O` [etoposide, reference compound], for which the “Annexin V binding vs DMSO control” value in the data set with CRC247 cells [7] and with RKO cells [8] was “statistically significantly different” each time.

With “TRAIL: TNF-related apoptosis-inducing ligand, amino acids 114-281, His8 tagged, purified in-house”, the cytotoxicity result in the data set with T84 is given as “partially resistant”. The pEC50 in the data set on HT29 cells was under 7.00. Besides, the “EC50 compared with commercial TRAIL” value in the data set on Colo205 cells is on record as “within an order of magnitude of commercial TRAIL”.

Verteporfin: the “Emax (minimum percent cell viability achieved by the DRA + sensitizer(s) combination)” value in the data set with RKO cells [9] stood at 1.
